Experiments:
anesthetized dogs = assay: Hemodynamic effects of 15 minute infusions (10, 30, 90 mg/kg) with or without diphenhydramine pretreatment; format: in vivo, dog; details: given prior to IV sulcardine sulfate
Protocol: Dogs were administered morphine (2 mg/kg subcutaneously) approximately 10-19 minutes prior to administration of anesthesia. Dogs were anesthetized with 1% α-chloralose (100 mg/kg intravenous), followed by a constant infusion of α-chloralose (35-75 mg/kg/hr, IV). Two healthy female dogs were administered escalating doses of sulcardine sulfate intravenously over 15 minutes in an acetate buffer system at dose levels of 10, 30 and 90 mg/kg with dose administrations separated by 60 minutes. Another set of two dogs received test article after pre-treatment with diphenhydramine (1 mg/kg administered 30 minutes prior to start of test article infusion). Following drug administration, dogs were evaluated for ventricular, pulmonary and peripheral hemodynamic changes using Swanz Ganz and femoral catheters as well as by monitoring of blood oxygen saturation, test article blood level, body temperature, blood biochemistry, hematology, ECG, and histamine levels.

conscious beagle dogs = assay: 10 minute intravenous infusion, increasing doses: mean blood pressure, heart rate, plasma histamine (ELISA); format: in vivo, dog; details: pretreatment before i.v. sulcardine sulfate
post-MI canine = assay: Defibrillation threshold / failure risk in post-MI canine model; format: in vivo

| Compound | Effect of anti-histamine on cutaneous manifestations of histamine release (flushing and facial and ear edema) (anesthetized dogs) | Effect of anti-histamine on hypotension seen on dosing (anesthetized dogs) | Effect of pretreatment on histamine-mediated events of sulcardine sulfate (conscious beagle dogs) | Defibrillation failure risk (post-MI canine) |
| --- | --- | --- | --- | --- |
| CN(C)CCOC(c1ccccc1)c1ccccc1 [diphenhydramine, reference compound] | blunting some of the cutaneous manifestations of histamine release | only partially reversed the hypotension | prevented the histamine-mediated events | – |
| N#Cc1cc(NC(=O)C(=O)O)c(Cl)c(NC(=O)C(=O)O)c1 [lodoxamide] | – | – | prevented the histamine-mediated events | – |
| O=C(NCC1CCCCN1)c1cc(OCC(F)(F)F)ccc1OCC(F)(F)F (centres unmarked) [flecanide] | – | – | – | increase defibrillation failure risk |

— US8637566B2, “Slow infusion of sulcardine and its salts” (HUYA Bioscience International LLC, priority 2009, dated 2014)
